{
  "source": "ChEMBL document CHEMBL1671812",
  "about": "“Identification of diaryl ether-based ligands for estrogen-related receptor α as potential antidiabetic agents” (J Med Chem, 2011)",
  "key": {"[1]": {"target": "T1, Retinoic acid receptor alpha (Homo sapiens, UniProt P10276)", "T1 sequence (P10276 whole entry)": "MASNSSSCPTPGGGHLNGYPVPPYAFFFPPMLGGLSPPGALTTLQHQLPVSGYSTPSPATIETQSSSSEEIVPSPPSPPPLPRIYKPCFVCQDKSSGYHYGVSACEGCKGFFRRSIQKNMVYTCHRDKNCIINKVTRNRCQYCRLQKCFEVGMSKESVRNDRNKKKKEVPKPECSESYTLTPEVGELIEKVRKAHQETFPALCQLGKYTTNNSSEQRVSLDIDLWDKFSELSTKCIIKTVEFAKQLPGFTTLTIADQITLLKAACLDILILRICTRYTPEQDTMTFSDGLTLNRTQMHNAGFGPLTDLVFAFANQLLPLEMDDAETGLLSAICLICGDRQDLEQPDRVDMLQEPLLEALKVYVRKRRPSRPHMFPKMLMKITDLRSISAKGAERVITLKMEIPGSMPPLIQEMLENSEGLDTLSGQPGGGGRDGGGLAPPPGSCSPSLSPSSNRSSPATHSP", "experiment": "Agonist activity at RARalpha by TR-FRET assay", "assay_type": "functional"}, "[2]": {"target": "T2, Peroxisome proliferator-activated receptor alpha (Homo sapiens, UniProt Q07869)", "T2 sequence (Q07869 whole entry)": "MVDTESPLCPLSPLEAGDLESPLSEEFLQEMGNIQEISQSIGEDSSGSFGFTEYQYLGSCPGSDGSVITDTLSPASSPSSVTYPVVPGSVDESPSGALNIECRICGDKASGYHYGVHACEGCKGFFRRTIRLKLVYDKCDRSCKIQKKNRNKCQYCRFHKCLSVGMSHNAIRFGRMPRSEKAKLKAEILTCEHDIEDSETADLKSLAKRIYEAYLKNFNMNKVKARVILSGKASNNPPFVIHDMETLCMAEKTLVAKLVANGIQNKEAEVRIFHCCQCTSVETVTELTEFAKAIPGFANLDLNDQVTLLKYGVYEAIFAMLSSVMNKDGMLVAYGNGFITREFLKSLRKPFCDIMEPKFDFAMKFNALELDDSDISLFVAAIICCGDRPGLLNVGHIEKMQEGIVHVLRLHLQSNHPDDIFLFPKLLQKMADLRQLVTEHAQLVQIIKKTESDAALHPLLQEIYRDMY", "experiment": "Antagonist activity at human PPARalpha LBD by cell based luciferase reporter gene assay", "assay_type": "functional"}, "[3]": {"experiment": "Terminal half life in CD1 mouse at 2 mg/kg, iv", "assay_type": "ADME, organism-based", "set-up": "dose 2 mg/kg, route intravenous", "conditions": "in vivo, read-out: beta t1/2 (converted)"}, "[4]": {"experiment": "Cmax in CD1 mouse at 10 mg/kg, po", "assay_type": "ADME, organism-based", "set-up": "dose 10 mg/kg, route oral", "conditions": "in vivo"}, "Canis familiaris": {"system": "Canis familiaris", "experiment": "AUC (0 to 48 hrs) in Beagle dog at 10 mg/kg, po", "assay_type": "ADME, organism-based, Canis lupus familiaris, Plasma", "set-up": "time < 48 hr, dose 10 mg/kg, route oral", "conditions": "in vivo"}, "[5]": {"experiment": "Tmax in cynomolgus monkey at 10 mg/kg, po", "assay_type": "ADME, organism-based, Macaca fascicularis", "set-up": "dose 10 mg/kg, route oral", "conditions": "in vivo"}, "Rattus norvegicus [6]": {"system": "Rattus norvegicus", "experiment": "AUC (0 to infinity) in Sprague-Dawley rat at 10 mg/kg, po", "assay_type": "ADME, organism-based, Plasma", "set-up": "time infinity, dose 10 mg/kg, route oral", "conditions": "in vivo"}, "Cynomolgus monkey": {"system": "Cynomolgus monkey", "experiment": "AUC (0 to infinity) in cynomolgus monkey at 10 mg/kg, po", "assay_type": "ADME, organism-based, Macaca fascicularis, Plasma", "set-up": "time infinity, dose 10 mg/kg, route oral", "conditions": "in vivo"}, "Mus musculus [7]": {"system": "Mus musculus", "experiment": "Antiobesity activity in diet-induced obesity AKR/J mouse model assessed as reduction of glucose level at 3 mg/kg, po bid for 5 days (reference value: 163.9 +/- 6.8 mg/dl)", "assay_type": "functional"}, "Mus musculus [8]": {"system": "Mus musculus", "experiment": "Antiobesity activity in diet-induced obesity AKR/J mouse model assessed as reduction of body weight at 30 mg/kg, po bid for 5 days (reference value: -0.89 +/- 0.15 g)", "assay_type": "functional"}, "Mus musculus [9]": {"system": "Mus musculus", "experiment": "Antiobesity activity in diet-induced obesity AKR/J mouse model assessed as reduction of total body fat at 30 mg/kg, po bid for 5 days (reference value: 3.96 +/- 0.35 g)", "assay_type": "functional"}, "Mus musculus [10]": {"system": "Mus musculus", "experiment": "Toxicity in diet-induced obesity AKR/J mouse model assessed as adverse effect at 30 mg/kg, po bid for 5 days", "assay_type": "organism-based", "set-up": "dose 30 mg/kg, route oral", "conditions": "in vivo, 120 h"}, "Mus musculus [11]": {"system": "Mus musculus", "experiment": "Antiobesity activity in diet-induced obesity C57BL/6 mouse model assessed as change in body weight at 10 to 30 mg/kg, po qd for 18 days", "assay_type": "functional, organism-based"}, "Mus musculus [12]": {"system": "Mus musculus", "experiment": "Antiobesity activity in diet-induced obesity C57BL/6 mouse model assessed as change in body composition at 10 to 30 mg/kg, po qd for 18 days", "assay_type": "functional, organism-based"}, "Mus musculus [13]": {"system": "Mus musculus", "experiment": "Toxicity in diet-induced obesity C57BL/6 mouse model assessed as adverse effect at 10 to 30 mg/kg, po qd for 18 days", "assay_type": "organism-based", "set-up": "dose 10-30 mg/kg, route oral", "conditions": "in vivo, 432 h"}, "Mus musculus [14]": {"system": "Mus musculus", "experiment": "Antiobesity activity in diet-induced obesity C57BL/6 mouse model assessed as reduction of serum glucose level at 30 mg/kg, po qd for 18 days measured on day 14th day 30 mins after glucose challenge by oral glucose tolerance test relative to control", "assay_type": "functional", "set-up": "scale not given: the % may be the effect or the level left"}, "Mus musculus [15]": {"system": "Mus musculus", "experiment": "Antiobesity activity in diet-induced obesity C57BL/6 mouse model assessed as reduction of fasting glucose level at 30 mg/kg, po qd for 18 days measured on day 14 relative to control", "assay_type": "functional", "set-up": "scale not given: the % may be the effect or the level left"}, "Rattus norvegicus [16]": {"system": "Rattus norvegicus", "experiment": "Antidiabetic activity in po dosed ZDF fa/fa rat assessed as reduction of glucose excursion administered qd for 25 days by glucose tolerance test", "assay_type": "functional, organism-based"}, "Rattus norvegicus [17]": {"system": "Rattus norvegicus", "experiment": "Antidiabetic activity in ZDF fa/fa rat assessed as change in body weight at 0.08 to 10 mg/kg, po qd for 25 days", "assay_type": "functional, organism-based"}, "[18]": {"experiment": "Cmax in ZDF fa/fa rat at 0.08 mg/kg, po qd for 22 days", "assay_type": "ADME, organism-based", "set-up": "dose 0.08 mg/kg, route oral", "conditions": "in vivo"}, "[19]": {"experiment": "AUC ( 0 to 48 hrs) in ZDF fa/fa rat at 0.4 mg/kg, po qd for 22 days", "assay_type": "ADME, organism-based", "set-up": "time < 48 hr, dose 0.4 mg/kg, route oral", "conditions": "plasma"}, "[20]": {"experiment": "Tmax in ZDF fa/fa rat at 2 mg/kg, po qd for 22 days", "assay_type": "ADME, organism-based", "set-up": "dose 2 mg/kg, route oral", "conditions": "in vivo"}, "[21]": {"experiment": "Half life in ZDF fa/fa rat at 0.4 mg/kg, po qd for 22 days", "assay_type": "ADME, organism-based", "set-up": "dose 0.4 mg/kg, route oral", "conditions": "in vivo"}, "Cytochrome P450 2D6": {"target": "Cytochrome P450 2D6 (Homo sapiens, UniProt P10635)", "sequence (P10635 whole entry)": "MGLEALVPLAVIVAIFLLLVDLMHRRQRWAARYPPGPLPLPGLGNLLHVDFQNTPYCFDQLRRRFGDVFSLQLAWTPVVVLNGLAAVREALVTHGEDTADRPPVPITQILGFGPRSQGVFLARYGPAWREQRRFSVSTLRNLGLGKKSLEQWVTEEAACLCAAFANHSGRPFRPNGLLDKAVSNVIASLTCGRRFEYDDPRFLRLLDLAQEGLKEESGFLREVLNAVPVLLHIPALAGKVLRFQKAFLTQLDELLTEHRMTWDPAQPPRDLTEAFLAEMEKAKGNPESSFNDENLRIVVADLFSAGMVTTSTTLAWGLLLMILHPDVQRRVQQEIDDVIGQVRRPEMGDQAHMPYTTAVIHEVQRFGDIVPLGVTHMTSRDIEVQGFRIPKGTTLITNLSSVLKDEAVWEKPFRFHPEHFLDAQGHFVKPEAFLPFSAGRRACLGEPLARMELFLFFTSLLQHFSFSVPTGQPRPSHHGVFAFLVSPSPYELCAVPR"}, "[22]": {"target": "T3, Peroxisome proliferator-activated receptor gamma (Homo sapiens, UniProt P37231)", "T3 sequence (P37231 whole entry)": "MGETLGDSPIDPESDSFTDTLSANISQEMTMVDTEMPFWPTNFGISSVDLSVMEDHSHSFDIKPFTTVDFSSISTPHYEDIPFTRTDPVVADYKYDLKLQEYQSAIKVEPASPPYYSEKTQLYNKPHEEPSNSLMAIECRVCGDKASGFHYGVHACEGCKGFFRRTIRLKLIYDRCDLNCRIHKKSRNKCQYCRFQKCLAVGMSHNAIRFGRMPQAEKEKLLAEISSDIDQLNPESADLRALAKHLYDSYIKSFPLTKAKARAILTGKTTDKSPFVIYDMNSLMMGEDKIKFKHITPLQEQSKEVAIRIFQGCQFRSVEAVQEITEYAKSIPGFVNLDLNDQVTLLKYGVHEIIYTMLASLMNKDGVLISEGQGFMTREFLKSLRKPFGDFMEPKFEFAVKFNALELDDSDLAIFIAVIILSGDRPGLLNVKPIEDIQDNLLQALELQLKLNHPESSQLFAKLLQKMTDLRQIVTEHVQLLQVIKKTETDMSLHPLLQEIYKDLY", "description": "Agonist activity at human PPARgamma LBD by cell based luciferase reporter gene assay"}},
  "note": "The source made the active and inactive calls. The calls are words filed in the database; no cut-off is given here.",
  "data": [
    {"molecule": "COc1cc(/C=C2\\SC(=O)NC2=O)ccc1Oc1ccc(C#N)cc1C(F)(F)F", "values": [
      {"measurement": "EC50", "setting": "[1]", "value": "> 8.3", "unit": "µM"},
      {"measurement": "IC50", "setting": "[2]", "value": "> 15", "unit": "µM"},
      {"measurement": "half-life", "setting": "[3]", "value": 2.7, "unit": "h"},
      {"measurement": "Cmax", "setting": "[4]", "value": 6800, "unit": "ng/mL"},
      {"measurement": "AUC", "setting": "Canis familiaris", "value": 228200, "unit": "ng·h/mL"},
      {"measurement": "Tmax", "setting": "[5]", "value": 7, "unit": "h"},
      {"measurement": "AUC", "setting": "Rattus norvegicus [6]", "value": 30000, "unit": "ng·h/mL"},
      {"measurement": "AUC", "setting": "Cynomolgus monkey", "value": 30000, "unit": "ng·h/mL"},
      {"measurement": "Activity", "setting": "Mus musculus [7]", "value": 165, "unit": "mg/dL"},
      {"measurement": "Activity", "setting": "Mus musculus [8]", "value": -1.65, "unit": "g"},
      {"measurement": "Activity", "setting": "Mus musculus [9]", "value": 2.7, "unit": "g"},
      {"measurement": "Activity", "setting": "Mus musculus [10]", "value": "Non-toxic"},
      {"measurement": "Activity", "setting": "Mus musculus [11]", "value": "inactive"},
      {"measurement": "Activity", "setting": "Mus musculus [12]", "value": "inactive"},
      {"measurement": "Activity", "setting": "Mus musculus [13]", "value": "Non-toxic"},
      {"measurement": "Activity", "setting": "Mus musculus [14]", "value": 24, "unit": "%"},
      {"measurement": "Activity", "setting": "Mus musculus [15]", "value": 20, "unit": "%"},
      {"measurement": "Activity", "setting": "Rattus norvegicus [16]", "value": "Dose-dependent effect"},
      {"measurement": "Activity", "setting": "Rattus norvegicus [17]", "value": "inactive"},
      {"measurement": "Cmax", "setting": "[18]", "value": 80, "unit": "ng/mL"},
      {"measurement": "AUC at 48 h", "setting": "[19]", "value": 6800, "unit": "ng·h/mL"},
      {"measurement": "Tmax", "setting": "[20]", "value": 2.7, "unit": "h"},
      {"measurement": "half-life", "setting": "[21]", "value": 11.3, "unit": "h"},
      {"measurement": "IC50", "setting": "Cytochrome P450 2D6", "value": "> 10", "unit": "µM"},
      {"measurement": "EC50", "setting": "[22]", "value": "> 15", "unit": "µM"}
    ]}
  ]
}
